Common to all, as to format: in vivo
The subject of one data set is soybean (Gl). Nature of the data set: Test Example 6: crop plant selectivity by upland field soil treatment (soybean), phytotoxicity. Further details: scale not given here. To be noted: 21st day after application. The procedure, abridged:
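Soybean and weeds sown in sand-filled pots and covered with soil, then treated by soil application. Plants grown in a greenhouse, with herbicidal effect and crop phytotoxicity scored on day 21 after application against a fixed rating scale.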

In the next data set the test system is Diaitaria ciliaris (Di). Briefly: Test Example 3: herbicidal effects by upland field foliage treatment. Further details: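 grade of growth control; 5 = at least 90%; 4 = 70 to 90%; 3 = 50 to 70%; 2 = 30 to 50%; 1 = 10 to 30%; 0 = under 10%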. The method in brief:
(§1)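 Weeds were sown in sand-filled pots (surface area: 120 cm^2), covered with soil and grown in a greenhouse for 2 weeks before foliar treatment. Plants then stayed in the greenhouse, and herbicidal effect was scored against graded standards on the 14th day after treatment.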

The test system of data set [1] is common lambsquarters (Ch). The data set is described as above. Details: scale not given here. The procedure, abridged:
as §1

Data set [2] concerns barnyardgrass (Ec). Described as above. Further details: scale not given here. The procedure, abridged:
as §1

The subject of the next data set is pale smartweed (Po). The description is as above. Further details: scale not given here. The procedure, abridged: as §1
A further data set has as its system rice flatsedge (Ci). Described as above. Further details: scale not given here. The method in brief: as §1
The subject of the next data set is slender amaranth (Am). Described as above. Further details: scale not given here. The method in brief:
as §1

For another data set, the system named is wheat (Tr). Nature of the data set: Test Example 5: crop plant selectivity by upland field soil treatment (wheat), phytotoxicity. Further details: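 grade of crop injury; 5 = at least 90%; 4 = 70 to 90%; 3 = 50 to 70%; 2 = 30 to 50%; 1 = 10 to 30%; 0 = under 10%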. To be noted: 21st day after application. The method in brief: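 Wheat and weeds were sown in sand-filled pots and covered with soil, then treated by soil application. Plants grew in a greenhouse, and herbicidal effect and crop phytotoxicity were scored on a rating scale 21 days after application.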

Another data set concerns monochoria (Mo). Briefly: Test Example 1: herbicidal effects by paddy field soil treatment.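 Further: grade of growth control; 5 = at least 90%; 4 = 70 to 90%; 3 = 50 to 70%; 2 = 30 to 50%; 1 = 10 to 30%; 0 = under 10%.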 To be noted: 100 g of the active ingredient per 10 ares, 21st day after the application, index 0-5 of Table 47. The procedure, abridged: (§2)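 Herbicidal effect was scored against a graded standard 21 days after treatment. Seeds were sown in puddled, leveled paddy soil flooded to 3 cm depth, and the active ingredient was applied at 100 g per 10 ares before greenhouse culture.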

The subject of data set [3] is barnyardgrass (Ec). The data set is described as above. To be noted: 100 g of the active ingredient per 10 ares, 21st day after the application, index 0-5 of Table 47. The procedure, abridged:
as §2

Another data set has as its system bulrush (Sc). The description is as above. The following applies: 100 g of the active ingredient per 10 ares, 21st day after the application, index 0-5 of Table 47. The procedure, abridged:
as §2

The mark [4] stands for this setting: 100 g of the active ingredient per 10 ares, evaluated on the 14th day after treatment.
The mark [5] stands for this setting: 100 g active ingredient per 10 ares, evaluated 14th day after treatment.
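Wherever Herbicidal effects Sc is given: grade of growth control; 5 = at least 90%; 4 = 70 to 90%; 3 = 50 to 70%; 2 = 30 to 50%; 1 = 10 to 30%; 0 = under 10%.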

Take `CCOC(=O)c1cc(-c2ccc(C(F)(F)F)n(C)c2=O)c(F)cc1Cl` [1-65]: the “Phytotoxicity Gl” value with soybean (Gl) (dose 1.6 g ai/10a) and in the data set on soybean (Gl) (dose 6.3 g ai/10a) was 1 throughout. In addition, the “Herbicidal effects Di” value in the data set on Diaitaria ciliaris (Di) (setting [4]) was determined as 5. The “Herbicidal effects Ch” value in data set [1] (setting [4]) stood at 5. Further, the “Herbicidal effects Ec” value in the data set on barnyardgrass (Ec) [2] (setting [4]) and in the data set on barnyardgrass (Ec) [3] was 5 throughout. The “Herbicidal effects Po” value in the data set on pale smartweed (Po) (setting [4]) is listed as 5. The “Herbicidal effects Ci” value in the data set on rice flatsedge (Ci) (setting [4]) was 5. Moreover, the “Herbicidal effects Am” value with slender amaranth (Am) (setting [4]) is reported as 5. Further, the “Phytotoxicity Tr” value in the data set on wheat (Tr) (dose 1.6 g ai/10a) was 0; in the data set with wheat (Tr) (dose 6.3 g ai/10a), 1. In addition, the “Herbicidal effects Mo” value in the data set on monochoria (Mo) is 5. Moreover, the “Herbicidal effects Sc” value with bulrush (Sc) came to 5.
As to `Cc1cc(-c2ccc(C(F)(F)F)n(C)c2=O)c(F)cc1Cl` [1-90], the “Phytotoxicity Gl” value in the data set with soybean (Gl) (dose 1.6 g ai/10a) and with soybean (Gl) (dose 6.3 g ai/10a) was 2 in each case. Further, the “Herbicidal effects Di” value in the data set on Diaitaria ciliaris (Di) (setting [4]) was determined as 5. The “Herbicidal effects Ch” value in data set [1] (setting [4]) is recorded as 5. Further, the “Herbicidal effects Ec” value in the data set with barnyardgrass (Ec) [2] (setting [4]) and in the data set with barnyardgrass (Ec) [3] was 5 in each case. In the data set with pale smartweed (Po) (setting [4]), the “Herbicidal effects Po” value is 5. For the same compound, in the data set with rice flatsedge (Ci) (setting [4]), the “Herbicidal effects Ci” value stood at 5. Moreover, in the data set on slender amaranth (Am) (setting [4]), the “Herbicidal effects Am” value is on record as 5. For the same compound, in the data set on wheat (Tr) (dose 6.3 g ai/10a), the “Phytotoxicity Tr” value was found to be 1. The “Herbicidal effects Mo” value in the data set with monochoria (Mo) amounted to 5. Further, the “Herbicidal effects Sc” value with bulrush (Sc) came to 5.
On to `COCSc1cc(-c2ccc(C(F)(F)F)n(C)c2=O)c(F)cc1Cl` [1-91], for which the “Phytotoxicity Gl” value was determined as 0 in the data set on soybean (Gl) (dose 1.6 g ai/10a) and 1 in the data set with soybean (Gl) (dose 6.3 g ai/10a). Also, in the data set on Diaitaria ciliaris (Di) (setting [4]), the “Herbicidal effects Di” value is on record as 5. Further, in [1] (setting [4]), the “Herbicidal effects Ch” value worked out at 5. Also, the “Herbicidal effects Ec” value in the data set with barnyardgrass (Ec) [2] (setting [4]) and in the data set with barnyardgrass (Ec) [3] was 5 each time. The “Herbicidal effects Po” value in the data set on pale smartweed (Po) (setting [4]) is listed as 5. Moreover, in the data set on rice flatsedge (Ci) (setting [4]), the “Herbicidal effects Ci” value came to 5. Also, in the data set with slender amaranth (Am) (setting [4]), the “Herbicidal effects Am” value stood at 5. Further, the “Phytotoxicity Tr” value with wheat (Tr) (dose 1.6 g ai/10a) worked out at 1. The “Herbicidal effects Mo” value in the data set with monochoria (Mo) is reported as 5. Further, the “Herbicidal effects Sc” value with bulrush (Sc) came out at 5.
Take `Cn1c(C(F)(F)F)ccc(-c2cc(Cl)c(Cl)cc2F)c1=O` [1-136]: the “Phytotoxicity Gl” value was 0 in the data set with soybean (Gl) (dose 1.6 g ai/10a) and 1 in the data set on soybean (Gl) (dose 6.3 g ai/10a). For the same compound, in the data set with Diaitaria ciliaris (Di) (setting [4]), the “Herbicidal effects Di” value amounted to 5. Moreover, the “Herbicidal effects Ch” value in data set [1] (setting [4]) came to 5. Also, the “Herbicidal effects Ec” value in the data set on barnyardgrass (Ec) [2] (setting [4]) and in the data set with barnyardgrass (Ec) [3] was 5 in each case. Also, the “Herbicidal effects Po” value with pale smartweed (Po) (setting [4]) turned out to be 5. In addition, the “Herbicidal effects Ci” value in the data set with rice flatsedge (Ci) (setting [4]) is 5. The “Herbicidal effects Am” value with slender amaranth (Am) (setting [4]) came out at 5. For the same compound, the results for the “Phytotoxicity Tr” value in the data set with wheat (Tr) (dose 1.6 g ai/10a) and in the data set on wheat (Tr) (dose 6.3 g ai/10a) were 1 and 2, respectively. Also, the “Herbicidal effects Mo” value in the data set on monochoria (Mo) was determined as 5. In addition, in the data set with bulrush (Sc), the “Herbicidal effects Sc” value is 5.
Turning to `Cn1c(C(F)(F)F)ccc(-c2cc(OCC(F)(F)F)c(Cl)cc2F)c1=O` [1-155], the “Phytotoxicity Gl” value in the data set on soybean (Gl) (dose 1.6 g ai/10a) and with soybean (Gl) (dose 6.3 g ai/10a) was 0 each time. Besides, the “Herbicidal effects Di” value with Diaitaria ciliaris (Di) (setting [4]) is 5. Moreover, the “Herbicidal effects Ch” value in data set [1] (setting [4]) was 5. In addition, the “Herbicidal effects Ec” value in the data set with barnyardgrass (Ec) [2] (setting [4]) and in the data set on barnyardgrass (Ec) [3] was 5 in each case. Moreover, the “Herbicidal effects Po” value in the data set with pale smartweed (Po) (setting [4]) was 5. The “Herbicidal effects Ci” value with rice flatsedge (Ci) (setting [4]) is listed as 5. Further, the “Herbicidal effects Am” value in the data set with slender amaranth (Am) (setting [4]) is 5. In addition, the “Phytotoxicity Tr” value worked out at 1 in the data set on wheat (Tr) (dose 1.6 g ai/10a) and 2 with wheat (Tr) (dose 6.3 g ai/10a). The “Herbicidal effects Mo” value in the data set on monochoria (Mo) was 5. Moreover, the “Herbicidal effects Sc” value in the data set on bulrush (Sc) was determined as 5.
With `C#CCOc1cc(-c2ccc(C(F)(F)F)n(N)c2=O)c(F)cc1Cl` [1-178], in the data set on Diaitaria ciliaris (Di) (setting [4]), the “Herbicidal effects Di” value is recorded as 5. Also, in [1] (setting [4]), the “Herbicidal effects Ch” value was 5. In addition, the “Herbicidal effects Ec” value in the data set with barnyardgrass (Ec) [2] (setting [4]) and with barnyardgrass (Ec) [3] was 5 in each case. The “Herbicidal effects Po” value with pale smartweed (Po) (setting [4]) is recorded as 5. For the same compound, the “Herbicidal effects Ci” value in the data set with rice flatsedge (Ci) (setting [4]) is recorded as 5. Further, the “Herbicidal effects Am” value in the data set on slender amaranth (Am) (setting [4]) was 5. Moreover, the “Phytotoxicity Tr” value in the data set on wheat (Tr) (dose 1.6 g ai/10a) was found to be 1. Also, the “Herbicidal effects Mo” value with monochoria (Mo) was 5. Besides, the “Herbicidal effects Sc” value in the data set on bulrush (Sc) is 5.
Consider `COc1cc(-c2ccc(C(F)(F)F)n(N)c2=O)c(F)cc1Cl` [1-179], for which the “Herbicidal effects Di” value in the data set with Diaitaria ciliaris (Di) (setting [4]) is listed as 5. The “Herbicidal effects Ch” value in [1] (setting [4]) was determined as 5. Also, the “Herbicidal effects Ec” value in the data set on barnyardgrass (Ec) [2] (setting [4]) and in the data set with barnyardgrass (Ec) [3] was 5 in each case. In addition, the “Herbicidal effects Po” value in the data set on pale smartweed (Po) (setting [4]) is reported as 5. The “Herbicidal effects Ci” value in the data set on rice flatsedge (Ci) (setting [4]) is recorded as 5. Moreover, in the data set with slender amaranth (Am) (setting [4]), the “Herbicidal effects Am” value was 5. For the same compound, the “Phytotoxicity Tr” value in the data set with wheat (Tr) (dose 6.3 g ai/10a) is reported as 1. The “Herbicidal effects Mo” value in the data set on monochoria (Mo) worked out at 5. Also, the “Herbicidal effects Sc” value in the data set with bulrush (Sc) turned out to be 5.
For the compound `Cn1c(C(F)(F)F)ccc(-c2cc(C#N)c(Cl)cc2F)c1=O` [Compound No. 1-119, 3-(4-chloro-5-cyano-2-fluorophenyl)-1-methyl-6-trifluoromethyl-2(1H)-pyridone], the “Phytotoxicity Gl” value in the data set on soybean (Gl) (dose 6.3 g ai/10a) is listed as 2. The “Herbicidal effects Di” value in the data set with Diaitaria ciliaris (Di) (setting [4]) is listed as 5. For the same compound, the “Herbicidal effects Ch” value in data set [1] (setting [4]) stood at 5. Besides, the “Herbicidal effects Ec” value in the data set with barnyardgrass (Ec) [2] (setting [4]) and with barnyardgrass (Ec) [3] was 5 in each case. The “Herbicidal effects Po” value in the data set on pale smartweed (Po) (setting [4]) is on record as 5. Also, the “Herbicidal effects Ci” value in the data set with rice flatsedge (Ci) (setting [4]) worked out at 5. In the data set on slender amaranth (Am) (setting [4]), the “Herbicidal effects Am” value is reported as 5. Besides, the “Herbicidal effects Mo” value with monochoria (Mo) was determined as 5. The “Herbicidal effects Sc” value in the data set on bulrush (Sc) amounted to 5.
Consider `Cc1cc2c(-c3cn(C)c(C(F)(F)F)cc3=O)c(F)cc(Cl)c2o1` [Compound No. 9-1, 5-(7-chloro-5-fluoro-2-methylbenzofuran-4-yl)-1-methyl-2-trifluoromethyl-4(1H)-pyridone], for which the “Herbicidal effects Di” value in the data set on Diaitaria ciliaris (Di) (setting [5]) was determined as 5. The “Herbicidal effects Ch” value in data set [1] (setting [5]) is 5. The “Herbicidal effects Ec” value in the data set on barnyardgrass (Ec) [2] (setting [5]) and in the data set with barnyardgrass (Ec) [3] was 5 throughout. Moreover, in the data set on pale smartweed (Po) (setting [5]), the “Herbicidal effects Po” value is 5. In the data set with rice flatsedge (Ci) (setting [5]), the “Herbicidal effects Ci” value is 5. Further, the “Herbicidal effects Am” value in the data set with slender amaranth (Am) (setting [5]) is 5. For the same compound, the results for the “Phytotoxicity Tr” value in the data set on wheat (Tr) (dose 1.6 g ai/10a) and in the data set on wheat (Tr) (dose 6.3 g ai/10a) were 0 and 1, respectively. In addition, in the data set on monochoria (Mo), the “Herbicidal effects Mo” value is 5. Further, in the data set with bulrush (Sc), the “Herbicidal effects Sc” value is on record as 5.

The record behind these values is patent US6472348B1, “Pyridone derivatives and herbicides” (Kumiai Chemical Industry Co., Ltd., priority 1996, dated 2002).
